Assay results taken from PubChem BioAssay (NCI).
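Each compound was tested at five concentrations against cells in 96-well plates for 48 hours. Here, GI50 denotes the concentration required for 50% inhibition of growth. TGI is the concentration that stops growth completely.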

What was measured:
Test in all cases: NCI-60 cell line screen, 48 h
BT-549 breast = tested on: BT-549 breast
SK-OV-3 ovarian = tested on: SK-OV-3 ovarian
MDA-MB-435 = tested on: MDA-MB-435
T-47D breast = tested on: T-47D breast
HCC-2998 colon = tested on: HCC-2998 colon
HL-60(TB) leukemia = tested on: HL-60(TB) leukemia
K-562 leukemia = tested on: K-562 leukemia
SK-MEL-2 melanoma = tested on: SK-MEL-2 melanoma
MCF7 breast = tested on: MCF7 breast
NCI/ADR-RES ovarian = tested on: NCI/ADR-RES ovarian
OVCAR-5 ovarian = tested on: OVCAR-5 ovarian
HCT-116 colon = tested on: HCT-116 colon
SF-539 CNS = tested on: SF-539 CNS
MALME-3M melanoma = tested on: MALME-3M melanoma
DU-145 prostate = tested on: DU-145 prostate
HOP-92 NSCLC = tested on: HOP-92 NSCLC
SF-295 CNS = tested on: SF-295 CNS
CCRF-CEM leukemia = tested on: CCRF-CEM leukemia
HS 578T breast = tested on: HS 578T breast
SK-MEL-28 melanoma = tested on: SK-MEL-28 melanoma
SNB-19 CNS = tested on: SNB-19 CNS
IGROV1 ovarian = tested on: IGROV1 ovarian
NCI-H226 lung = tested on: NCI-H226 lung
LOX IMVI melanoma = tested on: LOX IMVI melanoma
CAKI-1 renal = tested on: CAKI-1 renal
RPMI-8226 leukemia = tested on: RPMI-8226 leukemia
MOLT-4 leukemia = tested on: MOLT-4 leukemia
SN12C renal = tested on: SN12C renal
HOP-62 NSCLC = tested on: HOP-62 NSCLC

O=C(Oc1ccc[nH]c1=O)c1cc([N+](=O)[O-])cc([N+](=O)[O-])c1
GI50 (BT-549 breast): > 100 µM | TGI (BT-549 breast): > 100 µM | GI50 (SK-OV-3 ovarian): > 100 µM | TGI (SK-OV-3 ovarian): > 100 µM | GI50 (MDA-MB-435): 51.3 µM | TGI (MDA-MB-435): > 100 µM | GI50 (T-47D breast): 73.2 µM | TGI (T-47D breast): > 100 µM | GI50 (HCC-2998 colon): > 100 µM | TGI (HCC-2998 colon): > 100 µM | GI50 (HL-60(TB) leukemia): 53.6 µM | TGI (HL-60(TB) leukemia): > 100 µM | GI50 (K-562 leukemia): 34.9 µM | TGI (K-562 leukemia): > 100 µM | GI50 (SK-MEL-2 melanoma): > 100 µM | TGI (SK-MEL-2 melanoma): > 100 µM | GI50 (MCF7 breast): > 100 µM | TGI (MCF7 breast): > 100 µM | GI50 (NCI/ADR-RES ovarian): > 100 µM | TGI (NCI/ADR-RES ovarian): > 100 µM | GI50 (OVCAR-5 ovarian): > 100 µM | TGI (OVCAR-5 ovarian): > 100 µM | GI50 (HCT-116 colon): > 100 µM | TGI (HCT-116 colon): > 100 µM | GI50 (SF-539 CNS): > 100 µM | TGI (SF-539 CNS): > 100 µM | GI50 (MALME-3M melanoma): 51.7 µM | TGI (MALME-3M melanoma): > 100 µM | GI50 (DU-145 prostate): > 100 µM | TGI (DU-145 prostate): > 100 µM | GI50 (HOP-92 NSCLC): > 100 µM | TGI (HOP-92 NSCLC): > 100 µM | GI50 (SF-295 CNS): 26.6 µM | TGI (SF-295 CNS): > 100 µM | GI50 (CCRF-CEM leukemia): 79 µM | TGI (CCRF-CEM leukemia): > 100 µM | GI50 (HS 578T breast): > 100 µM | TGI (HS 578T breast): > 100 µM | GI50 (SK-MEL-28 melanoma): > 100 µM | TGI (SK-MEL-28 melanoma): > 100 µM | GI50 (SNB-19 CNS): > 100 µM | TGI (SNB-19 CNS): > 100 µM | GI50 (IGROV1 ovarian): > 100 µM | TGI (IGROV1 ovarian): > 100 µM | GI50 (NCI-H226 lung): > 100 µM | TGI (NCI-H226 lung): > 100 µM | GI50 (LOX IMVI melanoma): > 100 µM | TGI (LOX IMVI melanoma): > 100 µM | GI50 (CAKI-1 renal): 35.7 µM | TGI (CAKI-1 renal): > 100 µM | GI50 (RPMI-8226 leukemia): > 100 µM | TGI (RPMI-8226 leukemia): > 100 µM | GI50 (MOLT-4 leukemia): > 100 µM | TGI (MOLT-4 leukemia): > 100 µM | GI50 (SN12C renal): > 100 µM | TGI (SN12C renal): > 100 µM | GI50 (HOP-62 NSCLC): > 100 µM | TGI (HOP-62 NSCLC): > 100 µM
